In US20250228239A1, “MOLECULES HAVING PESTICIDAL UTILITY, AND INTERMEDIATES, COMPOSITIONS, AND PROCESSES, RELATED THERETO” (priority 2024, published 2025) one finds pest or weed control data, which are given here for 19 molecules.

Assay [1] concerns Beet Armyworm (Spodoptera exigua, LAPHEG). Put plainly: Bioassays on Beet Armyworm (BAW), 128-well diet tray assay. Format: in vivo. To be noted: Spodoptera exigua, read-out: BAW. Here is the method: (§1) Certain molecules disclosed in this document were tested against BAW and CL using procedures described in the following examples. In the reporting of the results, the “BAW & CL Rating Table” was used (See Table Section).
Bioassays on BAW were conducted using a 128-well diet tray assay. One to five second instar BAW larvae were placed in each well (3 mL) of the diet tray that had been previously filled with 1 mL of artificial diet to which 50 μg/cm^2 of the test molecule (dissolved in 50 μL of 90:10 acetone-water mixture) had been applied (to each of eight wells) and then allowed to dry. Trays were covered with a clear self-adhesive cover, vented to allow gas exchange, and held at 25° C., 14:10 light-dark for five to seven days. Percent mortality was recorded for the larvae in each well; activity in the eight wells was then averaged. The results are indicated in the table entitled “Table ABC: Biological Results” (See Table Section).

Assay [2] relates to Cabbage Looper (Trichoplusia ni, TRIPNI). Briefly: Bioassays on Cabbage Looper (CL), 128-well diet tray assay. To be noted: Trichoplusia ni, read-out: CL. In kind it is in vivo. Here is the method: as §1
Bioassays on CL were conducted using a 128-well diet tray assay. One to five second instar CL larvae were placed in each well (3 mL) of the diet tray that had been previously filled with 1 mL of artificial diet to which 50 μg/cm^2 of the test molecule (dissolved in 50 μL of 90:10 acetone-water mixture) had been applied (to each of eight wells) and then allowed to dry. Trays were covered with a clear self-adhesive cover, vented to allow gas exchange, and held at 25° C., 14:10 light-dark for five to seven days. Percent mortality was recorded for the larvae in each well; activity in the eight wells was then averaged. The results are indicated in the table entitled “Table ABC: Biological Results” (See Table Section).

Where [3] appears, read: Table ABC: Biological Results, species BAW.
The mark [4] stands for this setting: Table ABC: Biological Results, species CL.

Read-outs that look alike come from different tables or passages of the source.

`O=C(Nc1ccc(F)c(NC(=O)C(F)(F)c2ccccc2)c1F)c1cc(NC(=O)[C@H]2[C@H](c3ccc(Cl)c(Cl)c3)C2(Cl)Cl)ccc1Cl` [F1471, 2-Chloro-5-((1R,3R)-2,2-dichloro-3-(3,4-dichlorophenyl)cyclopropane-1-carboxamido)-N-(3-(2,2-difluoro-2-phenylacetamido)-2,4-difluorophenyl)benzamide]: the pest or weed control at 50 µg/cm2 in assay [1] (Beet Armyworm, rating class) fell in the range of 50 to 100%; in assay [2] (Cabbage Looper, rating class) it was 50 to 100%.

For the molecule `CC(=O)Nc1ccc(F)c(NC(=O)c2cc(NC(=O)[C@H]3[C@H](c4ccc(F)c(C(F)(F)F)c4)C3(Cl)Cl)cc(F)c2F)c1F` [F1576, N-(3-Acetamido-2,6-difluorophenyl)-5-((1R,3R)-2,2-dichloro-3-(4-fluoro-3-(trifluoromethyl)phenyl)cyclopropane-1-carboxamido)-2,3-difluorobenzamide], the pest or weed control at 50 µg/cm2 lay in the range of 50 to 100% in assay [1] (Beet Armyworm, rating class) and 50 to 100% in assay [2] (Cabbage Looper, rating class).

As for `N#Cc1cc(NC(=O)c2cc(NC(=O)[C@H]3[C@H](c4ccc(F)c(Cl)c4)C3(Cl)Cl)ccc2Cl)ccc1NC(=O)C(F)(F)F` (relative stereo) [F1388, trans-2-Chloro-N-(3-cyano-4-(2,2,2-trifluoroacetamido)phenyl)-5-(2,2-dichloro-3-(3-chloro-4-fluorophenyl)cyclopropane-1-carboxamido)benzamide], the pest or weed control at 50 µg/cm2 in assay [1] (setting [3]) and in assay [2] (setting [4]) was 50 to 100% each time.

For the molecule `O=C(Nc1ccc(F)c(NC(=O)C(F)F)c1F)c1cc(NC(=O)[C@H]2[C@H](c3cccc(S(F)(F)(F)(F)F)c3)C2(Cl)Cl)ccc1Cl` (relative stereo) [F1293, trans-2-Chloro-5-(2,2-dichloro-3-(3-(pentafluoro-λ^6-sulfanyl)phenyl)cyclopropane-1-carboxamido)-N-(3-(2,2-difluoroacetamido)-2,4-difluorophenyl)benzamide], the pest or weed control at 50 µg/cm2 in assay [1] (setting [3]) and in assay [2] (setting [4]) was 50 to 100% each time.

Regarding `O=C(Nc1ccc(F)cc1F)c1cc(NC(=O)[C@@H]2[C@@H](c3cc(F)c(F)c(F)c3)C2(Cl)Cl)ccc1Cl` [F1749, 2-Chloro-5-((1S,3S)-2,2-dichloro-3-(3,4,5-trifluorophenyl)cyclopropane-1-carboxamido)-N-(2,4-difluorophenyl)benzamide], the pest or weed control at 50 µg/cm2 was in the range of 50 to 100% in assay [1] (Beet Armyworm, rating class) and 50 to 100% in assay [2] (Cabbage Looper, rating class).

As for `O=C(Nc1c(F)ccc(NC(=O)C(F)(F)F)c1F)c1cc(NC(=O)[C@H]2[C@H](c3ccc(Cl)c(Cl)c3)C2(Cl)Cl)cc(F)c1Cl` [F1344, 2-Chloro-5-((1R,3R)-2,2-dichloro-3-(3,4-dichlorophenyl)cyclopropane-1-carboxamido)-N-(2,6-difluoro-3-(2,2,2-trifluoroacetamido)phenyl)-3-fluorobenzamide], the pest or weed control at 50 µg/cm2 in assay [1] (setting [3]) and in assay [2] (setting [4]) was 50 to 100% throughout.

For `Nc1ccc(F)c(NC(=O)c2cc(NC(=O)[C@H]3[C@H](c4ccc(Cl)c(Cl)c4)C3(Cl)Cl)cc(F)c2Cl)c1F` [F1338, N-(3-Amino-2,6-difluorophenyl)-2-chloro-5-((1R,3R)-2,2-dichloro-3-(3,4-dichlorophenyl)cyclopropane-1-carboxamido)-3-fluorobenzamide], the pest or weed control at 50 µg/cm2 in assay [1] (setting [3]) and in assay [2] (setting [4]) was 50 to 100% in each case.

Consider `CC(=O)Nc1c(F)cc(NC(=O)c2cc(NC(=O)[C@H]3[C@H](c4ccc(Cl)c(Cl)c4)C3(Cl)Cl)ccc2Cl)cc1F` (relative stereo) [F1124, trans-N-(4-Acetamido-3,5-difluorophenyl)-2-chloro-5-(2,2-dichloro-3-(3,4-dichlorophenyl)cyclopropane-1-carboxamido)benzamide], for which the pest or weed control at 50 µg/cm2 in assay [1] (setting [3]) and in assay [2] (setting [4]) was 50 to 100% throughout.

Turning to `O=C(Nc1c(F)ccc(NC(=O)C(F)(F)F)c1F)c1cc(NC(=O)[C@H]2[C@H](c3ccc(Cl)c(Cl)c3)C2(Cl)Cl)ccc1F` [F1513, 5-((1R,3R)-2,2-Dichloro-3-(3,4-dichlorophenyl)cyclopropane-1-carboxamido)-N-(2,6-difluoro-3-(2,2,2-trifluoroacetamido)phenyl)-2-fluorobenzamide], the pest or weed control at 50 µg/cm2 in assay [1] (Beet Armyworm, rating class) was in the range of 50 to 100%; in assay [2] (Cabbage Looper, rating class) it was 50 to 100%.

For the molecule `O=C(Nc1ccc(F)c(NC(=O)C(F)F)c1F)c1cc(NC(=O)[C@H]2[C@H](c3ccc(Cl)c(Cl)c3)C2(Cl)Cl)ccc1F` [F1491, 5-((1R,3R)-2,2-Dichloro-3-(3,4-dichlorophenyl)cyclopropane-1-carboxamido)-N-(3-(2,2-difluoroacetamido)-2,4-difluorophenyl)-2-fluorobenzamide], the pest or weed control at 50 µg/cm2 fell in the range of 50 to 100% in assay [1] (Beet Armyworm, rating class) and 50 to 100% in assay [2] (Cabbage Looper, rating class).

For the molecule `O=C(Nc1c(F)ccc(NC(=O)C(F)(F)F)c1F)c1cc(NC(=O)[C@H]2[C@H](c3ccc(Cl)c(Cl)c3)C2(Cl)Cl)cc(F)c1F` [F1578, 5-((1R,3R)-2,2-Dichloro-3-(3,4-dichlorophenyl)cyclopropane-1-carboxamido)-N-(2,6-difluoro-3-(2,2,2-trifluoroacetamido)phenyl)-2,3-difluorobenzamide], the pest or weed control at 50 µg/cm2 fell in the range of 50 to 100% in assay [1] (Beet Armyworm, rating class) and 50 to 100% in assay [2] (Cabbage Looper, rating class).

Take `COc1c(Cl)cc(NC(=O)[C@H]2[C@H](c3ccc(F)c(Cl)c3)C2(Cl)Cl)cc1C(=O)Nc1ccc(F)cc1F` (relative stereo) [F1236, trans-3-Chloro-5-(2,2-dichloro-3-(3-chloro-4-fluorophenyl)cyclopropane-1-carboxamido)-N-(2,4-difluorophenyl)-2-methoxybenzamide]: the pest or weed control at 50 µg/cm2 in assay [1] (setting [3]) and in assay [2] (setting [4]) was 50 to 100% each time.

`O=C(Nc1ccc(F)c(NC(=O)C(F)F)c1F)c1cc(NC(=O)[C@H]2[C@H](c3ccc(F)c(C(F)(F)F)c3)C2(Cl)Cl)cc(F)c1F` [F1571, 5-((1R,3R)-2,2-Dichloro-3-(4-fluoro-3-(trifluoromethyl)phenyl)cyclopropane-1-carboxamido)-N-(3-(2,2-difluoroacetamido)-2,4-difluorophenyl)-2,3-difluorobenzamide]: the pest or weed control at 50 µg/cm2 in assay [1] (Beet Armyworm, rating class) fell in the range of 50 to 100%; in assay [2] (Cabbage Looper, rating class), 50 to 100%.

As to `Cc1cc(NC(=O)[C@H]2[C@H](c3cc(Cl)c(Cl)c(Cl)c3)C2(Cl)Cl)cc(C(=O)Nc2ccc(F)c(NC(=O)C(F)F)c2F)c1Cl` [F1486, 2-Chloro-5-((1R,3R)-2,2-dichloro-3-(3,4,5-trichlorophenyl)cyclopropane-1-carboxamido)-N-(3-(2,2-difluoroacetamido)-2,4-difluorophenyl)-3-methylbenzamide], the pest or weed control at 50 µg/cm2 in assay [1] (Beet Armyworm, rating class) lay within 50 to 100%; in assay [2] (Cabbage Looper, rating class), 50 to 100%.

Regarding `Cc1cc(NC(=O)[C@H]2[C@H](c3ccc(F)c(C(F)(F)F)c3)C2(Cl)Cl)cc(C(=O)Nc2cc(N)c(F)cc2F)c1Cl` [F1478, N-(5-Amino-2,4-difluorophenyl)-2-chloro-5-((1R,3R)-2,2-dichloro-3-(4-fluoro-3-(trifluoromethyl)phenyl)cyclopropane-1-carboxamido)-3-methylbenzamide], the pest or weed control at 50 µg/cm2 in assay [1] (Beet Armyworm, rating class) lay within 50 to 100%; in assay [2] (Cabbage Looper, rating class), 50 to 100%.

As to `O=C(Nc1ccc(F)c(NC(=O)C2CCCO2)c1F)c1cc(NC(=O)[C@H]2[C@H](c3cccc(C(F)(F)F)c3)C2(Cl)Cl)ccc1Cl` (stereo partly drawn) [F1676, N-(3-(2-Chloro-5-((1R,3R)-2,2-dichloro-3-(3-(trifluoromethyl)phenyl)cyclopropane-1-carboxamido)benzamido)-2,6-difluorophenyl)tetrahydrofuran-2-carboxamide], the pest or weed control at 50 µg/cm2 in assay [1] (Beet Armyworm, rating class) was in the range of 50 to 100%; in assay [2] (Cabbage Looper, rating class), 50 to 100%.

Take `Nc1cc(NC(=O)c2cc(NC(=O)[C@H]3[C@H](c4ccc(Cl)c(Cl)c4)C3(Cl)Cl)ccc2F)c(F)cc1F` [F1490, N-(5-Amino-2,4-difluorophenyl)-5-((1R,3R)-2,2-dichloro-3-(3,4-dichlorophenyl)cyclopropane-1-carboxamido)-2-fluorobenzamide]: the pest or weed control at 50 µg/cm2 in assay [1] (Beet Armyworm, rating class) is 50 to 100%; in assay [2] (Cabbage Looper, rating class), 50 to 100%.

Take `Cc1cc(NCc2ccc(NC(=O)OC(C)(C)C)cc2)ccc1NC(=O)c1cc(NC(=O)[C@H]2[C@H](c3cc(Cl)cc(Cl)c3)C2(Cl)Cl)ccc1Cl` (relative stereo) [F1348, trans-tert-Butyl (4-(((4-(2-chloro-5-(2,2-dichloro-3-(3,5-dichlorophenyl)cyclopropane-1-carboxamido)benzamido)-3-methylphenyl)amino)methyl)phenyl)carbamate]: the pest or weed control at 50 µg/cm2 in assay [1] (setting [3]) and in assay [2] (setting [4]) was 50 to 100% in each case.

For `CC(=O)Nc1ccc(F)c(NC(=O)c2cc(NC(=O)[C@H]3[C@H](c4ccc(F)c(C(F)(F)F)c4)C3(Cl)Cl)cc(C)c2Cl)c1F` [F1525, N-(3-Acetamido-2,6-difluorophenyl)-2-chloro-5-((1R,3R)-2,2-dichloro-3-(4-fluoro-3-(trifluoromethyl)phenyl)cyclopropane-1-carboxamido)-3-methylbenzamide], the pest or weed control at 50 µg/cm2 in assay [1] (Beet Armyworm, rating class) is 50 to 100%; in assay [2] (Cabbage Looper, rating class) it was 50 to 100%.
